Values after ≈ are worked out from the molar mass of the structure shown.
Experiments:
[1] = test system: Plasmodium falciparum; assay: Antimalarial activity against CQ-sensitive Plasmodium falciparum 3D7; format: functional, organism-based
[2] = test system: Plasmodium falciparum; assay: Antimalarial activity against CQ-resistant Plasmodium falciparum W2; format: functional, organism-based
[3] = test system: Plasmodium falciparum; assay: Selectivity index, ratio of IC50 for Chloroquine resistant Plasmodium falciparum W2 to IC50 for Chloroquine sensitive Plasmodium falciparum 3D7; format: functional
[4] = test system: NCI-H460; assay: Antiproliferative activity against human NCI-H460 cells; format: functional, cell-based
[5] = test system: PANC-1; assay: Antiproliferative activity against human PANC-1 cells; format: functional, cell-based
[6] = test system: MIA PaCa-2; assay: Antiproliferative activity against human MIA PaCa-2 cells; format: functional, cell-based
[7] = test system: HT-29; assay: Antiproliferative activity against human HT-29 cells; format: functional, cell-based
[8] = test system: A-375; assay: Antiproliferative activity against human A-375 cells; format: functional, cell-based
[9] = test system: MV4-11; assay: Antiproliferative activity against human MV4-11 cells; format: functional, cell-based
[10] = biological target: Histone-lysine N-methyltransferase, H3 lysine-79 specific (Homo sapiens, UniProt Q8TEK3); assay: Inhibition of DOT1L (unknown origin)
Sequence of Histone-lysine N-methyltransferase, H3 lysine-79 specific (Q8TEK3 whole entry): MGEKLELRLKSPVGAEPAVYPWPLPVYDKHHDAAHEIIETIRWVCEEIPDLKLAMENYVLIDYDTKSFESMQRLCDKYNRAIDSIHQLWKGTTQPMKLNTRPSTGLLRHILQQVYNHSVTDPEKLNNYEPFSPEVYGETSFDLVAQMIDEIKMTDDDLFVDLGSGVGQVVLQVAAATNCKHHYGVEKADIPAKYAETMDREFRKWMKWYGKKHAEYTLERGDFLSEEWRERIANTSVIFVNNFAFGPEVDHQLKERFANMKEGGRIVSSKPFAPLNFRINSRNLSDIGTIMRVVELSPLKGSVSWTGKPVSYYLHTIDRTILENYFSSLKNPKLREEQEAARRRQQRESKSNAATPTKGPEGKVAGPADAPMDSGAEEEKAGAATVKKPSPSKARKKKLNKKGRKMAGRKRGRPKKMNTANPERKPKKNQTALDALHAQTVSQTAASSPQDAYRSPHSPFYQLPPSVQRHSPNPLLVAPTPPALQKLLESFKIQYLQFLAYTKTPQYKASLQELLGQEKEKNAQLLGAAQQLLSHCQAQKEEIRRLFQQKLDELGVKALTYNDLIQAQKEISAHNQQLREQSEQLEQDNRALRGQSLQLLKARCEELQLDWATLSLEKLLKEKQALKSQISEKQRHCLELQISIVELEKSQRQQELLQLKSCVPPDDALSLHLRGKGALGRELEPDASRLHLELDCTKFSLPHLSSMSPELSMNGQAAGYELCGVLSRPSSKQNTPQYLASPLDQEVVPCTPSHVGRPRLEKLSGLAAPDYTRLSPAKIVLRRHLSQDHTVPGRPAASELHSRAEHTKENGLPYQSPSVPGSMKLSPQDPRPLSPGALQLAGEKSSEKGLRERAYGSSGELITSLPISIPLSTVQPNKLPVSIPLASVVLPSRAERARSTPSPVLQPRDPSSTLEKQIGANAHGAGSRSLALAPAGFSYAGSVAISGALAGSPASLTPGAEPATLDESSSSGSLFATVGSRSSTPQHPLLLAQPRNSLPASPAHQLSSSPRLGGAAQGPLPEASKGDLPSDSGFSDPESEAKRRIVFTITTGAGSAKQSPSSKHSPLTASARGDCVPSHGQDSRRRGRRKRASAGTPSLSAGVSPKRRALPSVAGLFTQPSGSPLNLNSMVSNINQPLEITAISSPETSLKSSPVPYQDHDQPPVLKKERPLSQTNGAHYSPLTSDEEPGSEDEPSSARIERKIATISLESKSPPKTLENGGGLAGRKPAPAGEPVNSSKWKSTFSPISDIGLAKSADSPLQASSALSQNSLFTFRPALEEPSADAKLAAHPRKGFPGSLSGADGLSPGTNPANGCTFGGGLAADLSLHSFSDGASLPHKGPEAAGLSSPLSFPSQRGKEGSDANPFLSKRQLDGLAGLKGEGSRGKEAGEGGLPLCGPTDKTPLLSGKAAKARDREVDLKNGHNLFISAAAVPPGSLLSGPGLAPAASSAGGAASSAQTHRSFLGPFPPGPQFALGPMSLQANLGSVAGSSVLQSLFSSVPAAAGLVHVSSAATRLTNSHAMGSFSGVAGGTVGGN

[11] = test system: HeLa; assay: Antiproliferative activity against human HeLa cells; format: functional, cell-based
[12] = test system: MDA-MB-231; assay: Antiproliferative activity against human MDA-MB-231 cells; format: functional, cell-based
[13] = test system: KG-1a; assay: Antiproliferative activity against human KG-1a cells; format: functional, cell-based
[14] = test system: MCF7; assay: Antiproliferative activity against human MCF7 cells; format: functional, cell-based
[15] = test system: A2780; assay: Antiproliferative activity against human A2780 cells; format: functional, cell-based
[16] = test system: A2780; assay: Antiproliferative activity against cisplatin resistant human A2780 cells; format: functional, cell-based
[17] = test system: MCF7; assay: Antiproliferative activity against mitoxantrone resistant human MCF7 cells; format: functional, cell-based
[18] = Antiproliferative activity against HUVEC cells; format: toxicity, cell-based; details: human
[19] = test system: Hemozoin; assay: Inhibition of beta-hematin formation
[20] = test system: Plasmodium berghei; assay: Antimalarial activity against Plasmodium berghei ANKA infected in mouse assessed increase in survival time (reference value: 6.8 day); format: functional
[21] = biological target: Hepatocyte growth factor receptor (Homo sapiens, UniProt P08581); assay: Inhibition of c-Met (unknown origin)
Sequence of Hepatocyte growth factor receptor (P08581 whole entry): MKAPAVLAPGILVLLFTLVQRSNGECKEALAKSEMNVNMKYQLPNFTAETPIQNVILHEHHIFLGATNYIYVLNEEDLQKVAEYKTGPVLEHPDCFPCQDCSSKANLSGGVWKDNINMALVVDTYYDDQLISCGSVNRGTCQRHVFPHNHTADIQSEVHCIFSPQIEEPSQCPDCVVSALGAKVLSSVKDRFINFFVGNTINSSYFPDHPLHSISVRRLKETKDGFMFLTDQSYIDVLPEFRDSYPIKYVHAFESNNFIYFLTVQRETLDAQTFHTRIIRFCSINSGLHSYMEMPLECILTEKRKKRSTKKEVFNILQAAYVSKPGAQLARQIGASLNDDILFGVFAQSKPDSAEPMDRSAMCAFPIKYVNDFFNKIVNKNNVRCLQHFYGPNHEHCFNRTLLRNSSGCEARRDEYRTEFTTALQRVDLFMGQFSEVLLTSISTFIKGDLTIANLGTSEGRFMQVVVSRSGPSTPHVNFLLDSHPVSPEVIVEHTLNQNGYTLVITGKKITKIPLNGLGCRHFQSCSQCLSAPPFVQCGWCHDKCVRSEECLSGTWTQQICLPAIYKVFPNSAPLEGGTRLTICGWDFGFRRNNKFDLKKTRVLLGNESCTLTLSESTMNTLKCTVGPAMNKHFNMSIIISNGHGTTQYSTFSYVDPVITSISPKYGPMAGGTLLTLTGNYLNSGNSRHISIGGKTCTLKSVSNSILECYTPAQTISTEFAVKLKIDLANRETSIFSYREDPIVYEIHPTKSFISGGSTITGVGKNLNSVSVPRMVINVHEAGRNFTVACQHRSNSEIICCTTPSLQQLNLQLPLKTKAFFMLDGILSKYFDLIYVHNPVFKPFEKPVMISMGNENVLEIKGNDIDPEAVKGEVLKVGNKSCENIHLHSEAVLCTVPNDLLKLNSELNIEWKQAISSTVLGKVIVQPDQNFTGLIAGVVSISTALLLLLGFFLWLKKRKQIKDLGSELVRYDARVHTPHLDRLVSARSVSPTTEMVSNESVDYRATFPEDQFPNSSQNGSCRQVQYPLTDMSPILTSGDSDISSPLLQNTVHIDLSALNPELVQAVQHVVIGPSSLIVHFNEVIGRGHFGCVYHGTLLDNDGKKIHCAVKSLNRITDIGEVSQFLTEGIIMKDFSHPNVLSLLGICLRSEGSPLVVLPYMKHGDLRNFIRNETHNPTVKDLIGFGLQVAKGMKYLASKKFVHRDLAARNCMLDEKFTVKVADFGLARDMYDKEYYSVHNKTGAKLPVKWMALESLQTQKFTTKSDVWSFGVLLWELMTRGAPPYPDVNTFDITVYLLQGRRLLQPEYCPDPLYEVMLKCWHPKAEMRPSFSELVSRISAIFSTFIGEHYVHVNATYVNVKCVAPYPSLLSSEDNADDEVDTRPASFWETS

[22] = test system: Leukemia cell; assay: Antiproliferative activity against human Leukemia cells; format: functional
[23] = Antiproliferative activity against human CNS cells; format: functional; details: CNS cell
[24] = test system: Breast carcinoma cell; assay: Antiproliferative activity against human breast cancer cells; format: functional
[25] = test system: Plasmodium berghei; assay: Antimalarial activity against liver stage Plasmodium berghei; format: functional, organism-based
[26] = test system: Plasmodium berghei; assay: Antiplasmodial activity against Plasmodium berghei infected in mouse assessed as reduction in parasitaemia at 35 umol/kg, sc administered for 4 days; format: functional; design: scale not given: the % may be the effect or the level left; details: dose 35 µmol/kg, time 4 day
[27] = test system: Plasmodium berghei; assay: Antiplasmodial activity against Plasmodium berghei infected in mouse assessed as reduction in parasitaemia at 105 umol/kg, po; format: functional; design: scale not given: the % may be the effect or the level left; details: dose 105 µmol/kg
[28] = test system: Plasmodium berghei; assay: Inhibition of hemozoin formation in Plasmodium berghei infected in mouse; format: functional
[29] = test system: A549; assay: Cytotoxicity against human A549 cells; format: functional, cell-based
[30] = test system: K562; assay: Cytotoxicity against human K562 cells; format: functional, cell-based
[31] = biological target: Phosphatidylinositol 4,5-bisphosphate 3-kinase catalytic subunit gamma isoform (Homo sapiens, UniProt P48736); assay: Inhibition of PI3K gamma (unknown origin)
[32] = test system: Plasmodium falciparum; assay: Antimalarial activity against CQ-resistant Plasmodium falciparum Dd2; format: functional, organism-based
[33] = test system: HCT-116; assay: Cytotoxicity against human HCT-116 cells; format: functional, cell-based
[34] = test system: RPMI-8226; assay: Cytotoxicity against human RPMI-8226 cells; format: functional, cell-based
[35] = test system: Hep 3B2; assay: Cytotoxicity against human Hep3B cells; format: functional, cell-based
[36] = Cytotoxicity against human SLMT-1 cells
[37] = test system: G-361; assay: Antiproliferative activity against human G-361 cells; format: functional, cell-based
[38] = biological target: T1, Epidermal growth factor receptor (Homo sapiens, UniProt P00533)
T1 sequence (P00533 whole entry): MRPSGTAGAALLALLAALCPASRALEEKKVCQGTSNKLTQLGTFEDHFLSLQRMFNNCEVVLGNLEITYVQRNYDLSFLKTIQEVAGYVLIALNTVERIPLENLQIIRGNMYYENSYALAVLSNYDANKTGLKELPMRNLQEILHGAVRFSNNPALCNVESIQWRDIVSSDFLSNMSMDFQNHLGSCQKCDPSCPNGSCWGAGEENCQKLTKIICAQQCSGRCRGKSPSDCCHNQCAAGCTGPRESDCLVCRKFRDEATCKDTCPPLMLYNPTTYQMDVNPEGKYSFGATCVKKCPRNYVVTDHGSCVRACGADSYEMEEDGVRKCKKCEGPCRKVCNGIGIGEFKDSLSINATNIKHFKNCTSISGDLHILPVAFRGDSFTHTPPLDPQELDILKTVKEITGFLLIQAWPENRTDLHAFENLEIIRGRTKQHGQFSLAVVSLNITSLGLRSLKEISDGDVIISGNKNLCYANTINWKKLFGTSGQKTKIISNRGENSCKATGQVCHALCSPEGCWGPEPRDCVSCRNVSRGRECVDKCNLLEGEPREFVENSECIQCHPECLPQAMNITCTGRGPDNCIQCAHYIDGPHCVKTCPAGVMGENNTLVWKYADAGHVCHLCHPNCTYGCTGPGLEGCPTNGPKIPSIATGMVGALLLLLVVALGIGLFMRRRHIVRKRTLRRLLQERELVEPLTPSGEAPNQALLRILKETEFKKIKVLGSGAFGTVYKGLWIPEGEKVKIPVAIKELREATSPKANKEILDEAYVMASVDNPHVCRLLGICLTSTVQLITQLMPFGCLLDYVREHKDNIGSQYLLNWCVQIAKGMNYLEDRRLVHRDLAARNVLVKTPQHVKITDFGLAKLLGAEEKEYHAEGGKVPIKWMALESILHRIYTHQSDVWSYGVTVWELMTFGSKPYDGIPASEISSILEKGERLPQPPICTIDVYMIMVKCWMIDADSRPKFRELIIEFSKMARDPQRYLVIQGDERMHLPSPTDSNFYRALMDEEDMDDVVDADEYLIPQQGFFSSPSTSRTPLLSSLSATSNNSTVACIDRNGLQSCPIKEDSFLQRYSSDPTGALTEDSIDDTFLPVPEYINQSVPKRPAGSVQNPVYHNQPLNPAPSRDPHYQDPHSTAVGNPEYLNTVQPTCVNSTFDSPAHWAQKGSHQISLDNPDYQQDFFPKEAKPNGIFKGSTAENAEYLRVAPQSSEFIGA

[39] = test system: HepG2; assay: Cytotoxicity against human HepG2 cells; format: functional, cell-based; details: Homo sapiens, HepG2
[40] = biological target: T1, Epidermal growth factor receptor; assay: Inhibition of EGFR (unknown origin)
[41] = test system: HepG2; assay: Antitumor activity against human HepG2 cells xenografted in nude mouse assessed as reduction in tumor increment rate at 5 mg/kg/day (reference value: 100%); format: functional; design: scale not given: the % may be the effect or the level left
[42] = biological target: Cathepsin B (Homo sapiens) (UniProt P07858); assay: Inhibition of human cathepsin B endopeptidase activity at 50 uM relative to control

In the case of CN1CCN(CCNCc2ccc(-c3cc(-c4ccc(CNCCN5CCN(C)CC5)cc4)c4ccccc4n3)cc2)CC1, the IC50 [1] is reported as 2420 nM, the IC50 [2] is reported as 130 nM and the “Ratio IC50” value [3] is reported as 20.

CSc1nc2ccccc2cc1/C=C1/C=C(c2ccccc2)NC1=O gave an IC50 [4] of 1900 nM, an IC50 [5] of 1900 nM and an IC50 [6] of 1900 nM. For the same compound, the IC50 [7] was 1900 nM and the IC50 [8] was 1900 nM.

In the case of Cc1cc(Nc2ccc3nc(C)cc(N)c3c2)nc(NCCCCCCNC(=O)Nc2cc(C(F)(F)F)cc(C(F)(F)F)c2)n1, the IC50 [9] is reported as 1290 nM and the IC50 [10] is reported as 3550 nM.

For Cc1ccc(Nc2nnc(-c3cc(-c4ccc(Br)cc4)nc4ccccc34)o2)cc1, the IC50 [11] was 50 nM, the IC50 [12] was 540 nM and the IC50 [13] was 1210 nM.

Compound COc1ccc(Nc2cc(/C=C/c3ccc([N+](=O)[O-])cc3)nc3cc(OC)c(OC)c(OC)c23)cc1OC has an IC50 ([14]; Homo sapiens, MCF7) of 1130 nM, an IC50 [15] of 1130 nM and an IC50 [16] of 1130 nM. For the same compound, the IC50 [17] was 1130 nM and the IC50 [18] was 7820 nM.

In the case of COC(=O)[C@H](Cc1c[nH]c2ccccc12)NC(=O)CSc1ccnc2cc(Cl)ccc12, the inhibition ([19]; concentration not given here) is reported as 61.1% and the Time [20] is reported as 24.6 days.

COc1cc2nccc(Oc3ccc(NC(=O)C4(C(=O)Nc5ccc(F)cc5)CC4)cc3)c2cc1Oc1ccc(N)cn1 gave an IC50 [21] of 19 nM, a GI50 [22] of 290 nM and a GI50 [23] of 290 nM. The GI50 [24] was 290 nM.

COc1cc(C)c2c(Oc3ccc(F)c(F)c3)c(OC)cc(NC(C)CCON=C(C)C)c2n1 (stereo unspecified) gave an IC50 [1] of 380 nM and an IC50 [25] of 5400 nM.

C[C@@H]1CCC2[C@@H](C)[C@H](OC(=O)CCC(=O)OCCNc3ccnc4cc(Cl)ccc34)O[C@@H]3O[C@@]4(C)CC[C@@H]1[C@@]23OO4 (stereo partly specified) gave an Activity [26] of 95.2%, an Activity [27] of 78.6% and an IC50 [19] of 560000 nM. The “inhibition (INH)” value [28] was 71.9%.

With Cc1ccc(-c2cc(C(=O)N/N=C(\C=C\c3ccc(Cl)cc3)c3ccc(N)cc3)c3ccccc3n2)cc1 the IC50 [29] was 1910 nM, the IC50 [30] was 1910 nM and the IC50 [31] was 197 nM.

CN(C)CCNc1cc(/C=C/c2ccc(Br)cc2)nc2ccccc12 gave an IC50 [32] of 33 nM.

With COc1cccc2c1C(=O)c1c(O)c3c(c(O)c1C2=O)C[C@@](O)(C(=O)CO)C[C@@H]3O[C@H]1C[C@H](N)[C@H](O)[C@H](C)O1 [DOXORUBICIN] the IC50 [33] was 410 nM, the IC50 ([14]; mcf7) was 1980 nM and the IC50 [34] was 410 nM. For the same compound, the IC50 [35] was 270 nM, the IC50 [36] was 270 nM and the IC50 [37] was 2440 nM.

COc1ccc2nc(-c3ccc(Br)cc3)cc(-c3nnc(Nc4ccc([N+](=O)[O-])cc4)o3)c2c1 gave an IC50 [11] of 50 nM, an IC50 [12] of 540 nM and an IC50 [13] of 1210 nM.

In the case of COc1ccc2nc(Cl)c(C3CC(c4ccc(C)cc4)=NN3c3nc(-c4ccc(F)cc4)cs3)cc2c1 (stereo unspecified), the IC50 [38] is reported as 31.8 nM.

For COc1ccc(/C=C/c2cc(Nc3cc(OC)c(OC)c(OC)c3)c3c(OC)c(OC)c(OC)cc3n2)cc1OC, the IC50 ([14]; Homo sapiens, MCF7) was 500 nM, the IC50 [15] was 500 nM and the IC50 [16] was 500 nM. The IC50 [17] was 500 nM and the IC50 [18] was 7820 nM.

With COc1ccc2nc(Cl)c(/C=C/C(=O)c3ccc(C)cc3)cc2c1 the IC50 [38] was 37.1 nM.

With Cc1ccc2nc(/C=C/c3ccc(N(C)C)cc3)cc(-c3nnc(N)s3)c2c1 the IC50 [39] was 7.7 µg/mL (≈ 19.9 µM), the IC50 [33] was 7.7 µg/mL and the IC50 [40] was 1110 nM.

CC(=O)O[C@H]1C(=O)[C@@]2(C)[C@H]([C@H](OC(=O)c3ccccc3)[C@]3(O)C[C@H](OC(=O)[C@H](O)[C@@H](NC(=O)c4ccccc4)c4ccccc4)C(C)=C1C3(C)C)[C@]1(OC(C)=O)CO[C@@H]1C[C@@H]2O [PACLITAXEL] showed an Activity [41] of 19%.

In the case of CN(C)CCNc1cc(/C=C/c2cccs2)nc2ccccc12, the IC50 [32] is reported as 33 nM.

O=[N+]([O-])c1ccc(O)c2ncccc12 gave an inhibition [42] of 27.7%.

Source: ChEMBL document CHEMBL5230155, “Recent contributions of quinolines to antimalarial and anticancer drug discovery research” (Eur J Med Chem, 2021)
